What was measured:
Format in all cases: functional, cell-based
MCF7 = test: Antiproliferative activity against human MCF7 cells assessed as inhibition of cell growth incubated for 48 hrs by XTT assay; details: MCF7, 48 h
HeLa = test: Antiproliferative activity against human HeLa cells assessed as inhibition of cell growth incubated for 48 hrs by XTT assay
PC-3 = test: Antiproliferative activity against human PC-3 cells assessed as inhibition of cell growth incubated for 48 hrs by XTT assay; details: PC-3, 48 h

Measured: IC50

COc1cc(-c2nnc(-c3c(C)[nH]c4c3Cc3ccccc3-4)[se]2)cc(OC)c1OC
> 10 µM: all assays above

Cc1[nH]c2c(c1-c1nnc(-c3ccc(Cl)c(Cl)c3)[se]1)Cc1ccccc1-2
> 10 µM: all assays above

Cc1[nH]c2c(c1-c1nnc(-c3ccc(Cl)c(Cl)c3)s1)Cc1ccccc1-2
> 10 µM: all assays above

COc1ccc(-c2nnc(-c3c(C)[nH]c4c3Cc3ccccc3-4)[se]2)cc1
> 10 µM: all assays above

Cc1[nH]c2c(c1-c1nnc(-c3ccc(C(C)(C)C)cc3)[se]1)Cc1ccccc1-2
> 10 µM: all assays above

Cc1[nH]c2c(c1-c1nnc(-c3ccc(C(C)(C)C)cc3)s1)Cc1ccccc1-2
> 10 µM: all assays above

Cc1[nH]c2c(c1-c1nnc(-c3cccc(Cl)c3)s1)Cc1ccccc1-2
> 10 µM: all assays above

Cc1[nH]c2c(c1-c1nnc(-c3ccc(Cl)cc3)s1)Cc1ccccc1-2
> 10 µM: all assays above

COc1cc(-c2nnc(-c3c(C)[nH]c4c3Cc3ccccc3-4)s2)cc(OC)c1OC
> 10 µM: all assays above

COc1ccc(-c2nnc(-c3c(C)[nH]c4c3Cc3ccccc3-4)s2)cc1
> 10 µM: all assays above

Cc1[nH]c2c(c1-c1nnc(-c3ccc(Cl)cc3)[se]1)Cc1ccccc1-2
> 10 µM: all assays above
